Here are results for 16 compounds from patent publication US20230114728A1 (Venatorx Pharmaceuticals, Inc., priority 2019, published 2023).

Test [1] addresses T1, E. coli K12 PBP3 (Escherichia coli, UniProt P0AD68).
T1 construct: made in house
The test is described as follows: biochemical. Format: binding. The essentials:
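A. baumannii PBP2 (2.5 μM) and PBP3 (0.2 μM) were run in 25 mM Tris pH 8.0 buffer with Tween 20; E. coli PBP3 (1.5 μM) and N. gonorrhoeae PBP2 ([…]) in 50 mM Hepes pH 8.0 buffer.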

Test [2] relates to E. coli ATCC 25922. The test is described as follows: Broth microdilution MIC in CAMHB. Format: cell-based. Conditions: Escherichia coli, ATCC25922; E. coli ATCC 25922; MHB; read-out: Minimum Inhibitory Concentration, E. coli 25922. The essentials:
(§1)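 Standard CLSI-style microdilution in cation-adjusted Mueller Hinton broth, 2-fold dilution series, incubated 16-20 h at 37° C; endpoint was visual absence of growth.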
A general note: Broth dilution looks for growth in wells or tubes with falling amounts of substance.

For test [3], the system named is E. coli D22. As to the kind of experiment: Broth microdilution MIC in CAMHB. Format: cell-based. The conditions noted are these: Escherichia coli; E. coli D22 (hyper-permeable); MHB; read-out: Minimum Inhibitory Concentration, E. coli D22. The essentials: as §1
Test [4] deals with K. pneumoniae SI-117 producing VIM-1. As to the kind of experiment: Broth microdilution MIC in CAMHB. Format: cell-based. The conditions noted are these: Klebsiella pneumoniae, read-out: Minimum Inhibitory Concentration, K. pneumoniae SI-117. The essentials: as §1
Test [5] has as its system P. aeruginosa ATCC 35151. As to the kind of experiment: Broth microdilution MIC in CAMHB. Type of test: cell-based. The conditions noted are these: Pseudomonas aeruginosa, ATCC35151; MHB; hyper-permeable strain; read-out: Minimum Inhibitory Concentration, P. aeruginosa ATCC 35151. The essentials:
as §1

Converted amounts (≈) assume the structure as drawn.

T1 sequence (P0AD68 1-577): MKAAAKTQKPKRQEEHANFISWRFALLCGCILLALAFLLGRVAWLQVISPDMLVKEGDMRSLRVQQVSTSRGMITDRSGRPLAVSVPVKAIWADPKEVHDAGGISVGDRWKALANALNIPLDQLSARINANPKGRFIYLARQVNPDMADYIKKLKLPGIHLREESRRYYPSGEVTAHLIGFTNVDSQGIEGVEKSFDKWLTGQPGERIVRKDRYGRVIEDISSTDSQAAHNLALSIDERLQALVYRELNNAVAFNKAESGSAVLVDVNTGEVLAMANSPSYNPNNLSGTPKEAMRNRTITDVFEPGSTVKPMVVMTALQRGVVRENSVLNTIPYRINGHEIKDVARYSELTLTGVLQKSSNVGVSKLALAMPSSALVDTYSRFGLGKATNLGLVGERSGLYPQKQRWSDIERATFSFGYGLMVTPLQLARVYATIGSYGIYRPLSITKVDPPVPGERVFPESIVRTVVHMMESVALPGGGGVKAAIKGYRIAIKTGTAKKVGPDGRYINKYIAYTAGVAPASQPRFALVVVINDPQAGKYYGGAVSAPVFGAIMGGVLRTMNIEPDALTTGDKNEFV

As usually defined, the EC50 is the concentration giving half of the maximal effect. Compound `CCN1CCN(C(=O)NC(C(=O)N[C@H]2Cc3cccc(C(=O)O)c3OB2O)c2cc(O)cc(O)c2)C(=O)C1=O` (mixture of isomers) [Example 79, (3R)-3-(2-(3,5-dihydroxyphenyl)-2-(4-ethyl-2,3-dioxopiperazine-1-carboxamido)acetamido)-2-hydroxy-3,4-dihydro-2H-benzo[e][1,2]oxaborinine-8-carboxylic acid] displayed an EC50 in test [1] of 30 to 500 µM. In addition, the MIC in test [2] lay in the range of 8 to 16 µg/mL; in test [3], 2 to 4 µg/mL; in test [4], 32 to 64 µg/mL; in test [5], 0.5 to 1 µg/mL.
On the same counts, the results for `CCN1CCN(C(=O)N[C@H](C(=O)N[C@H]2Cc3cccc(C(=O)O)c3OB2O)c2cc(O)cc(O)c2)C(=O)C1=O` (single isomer, unassigned) [Example 81] are above 500 µM, 32 to 64 µg/mL (≈ 59.2 to 118 µM), 8 to 16 µg/mL (≈ 14.8 to 29.6 µM), above 128 µg/mL and 2 to 4 µg/mL (≈ 3.7 to 7.4 µM).
With `CCN1CCN(C(=O)N[C@@H](C(=O)N[C@H]2Cc3cccc(C(=O)O)c3OB2O)c2cc(O)cc(O)c2)C(=O)C1=O` (single isomer, unassigned) [Example 82], the EC50 in test [1] fell in the range of 30 to 500 µM. Further, the MIC was 32 to 64 µg/mL (≈ 59.2 to 118 µM) in test [2], 2 to 4 µg/mL (≈ 3.7 to 7.4 µM) in test [3], 32 to 64 µg/mL (≈ 59.2 to 118 µM) in test [4] and below 0.25 µg/mL in test [5].
In the case of `NCCN1CCN(C(=O)N[C@H](C(=O)N[C@H]2Cc3cccc(C(=O)O)c3OB2O)c2ccc(C(=O)O)cc2)C(=O)C1=O` (single isomer, unassigned) [Example 83], in test [1], the EC50 is 30 to 500 µM. Also, the MIC in test [2] was 32 to 64 µg/mL (≈ 56.4 to 113 µM); in test [3], 2 to 4 µg/mL (≈ 3.53 to 7.05 µM); in test [4], above 128 µg/mL; in test [5], 0.5 to 1 µg/mL (≈ 0.881 to 1.76 µM).
Take `NCCN1CCN(C(=O)N[C@@H](C(=O)N[C@H]2Cc3cccc(C(=O)O)c3OB2O)c2ccc(C(=O)O)cc2)C(=O)C1=O` (single isomer, unassigned) [Example 84]: the EC50 in test [1] was below 30 µM. The MIC in test [2] is 8 to 16 µg/mL (≈ 14.1 to 28.2 µM); in test [3] it was 2 to 4 µg/mL (≈ 3.53 to 7.05 µM); in test [4], above 128 µg/mL; in test [5], 0.5 to 1 µg/mL (≈ 0.881 to 1.76 µM).
The compound `NCCN1CCN(C(=O)N[C@H](C(=O)N[C@H]2Cc3cccc(C(=O)O)c3OB2O)c2ccc(O)cc2Cl)C(=O)C1=O` (single isomer, unassigned) [Example 85] returned a concentration giving a half-maximal response (EC50) in test [1] of 30 to 500 µM. Also, the MIC in test [2] was above 128 µg/mL; in test [3], 32 to 64 µg/mL (≈ 55.8 to 112 µM); in test [4], above 128 µg/mL; in test [5], 2 to 4 µg/mL (≈ 3.49 to 6.97 µM).
In the case of `NCCN1CCN(C(=O)N[C@@H](C(=O)N[C@H]2Cc3cccc(C(=O)O)c3OB2O)c2ccc(O)cc2Cl)C(=O)C1=O` (single isomer, unassigned) [Example 86], the EC50 in test [1] was below 30 µM. Besides, the MIC in test [2] was 32 to 64 µg/mL (≈ 55.8 to 112 µM); in test [3], 8 to 16 µg/mL (≈ 13.9 to 27.9 µM); in test [4], 32 to 64 µg/mL (≈ 55.8 to 112 µM); in test [5] it was 0.5 to 1 µg/mL (≈ 0.871 to 1.74 µM).
`NCCN1CCN(C(=O)N[C@H](C(=O)N[C@H]2Cc3cccc(C(=O)O)c3OB2O)c2ccc(O)cc2F)C(=O)C1=O` (single isomer, unassigned) [Example 88] yielded an EC50 in test [1] of 30 to 500 µM. Further, the MIC is above 128 µg/mL in test [2], 32 to 64 µg/mL (≈ 57.4 to 115 µM) in test [3], above 128 µg/mL in test [4] and 2 to 4 µg/mL (≈ 3.59 to 7.18 µM) in test [5].
For the compound `NCCN1CCN(C(=O)N[C@@H](C(=O)N[C@H]2Cc3cccc(C(=O)O)c3OB2O)c2ccc(O)cc2F)C(=O)C1=O` (single isomer, unassigned) [Example 89], in test [1], the EC50 was in the range of 30 to 500 µM. The MIC in test [2] was 32 to 64 µg/mL (≈ 57.4 to 115 µM); in test [3], 8 to 16 µg/mL (≈ 14.4 to 28.7 µM); in test [4], 32 to 64 µg/mL (≈ 57.4 to 115 µM); in test [5], 0.5 to 1 µg/mL (≈ 0.897 to 1.79 µM).
Regarding `CCN1CCN(C(=O)N[C@@H](C(=O)N[C@H]2Cc3cccc(C(=O)O)c3OB2O)c2cc(Cl)c(O)cc2Cl)C(=O)C1=O` (single isomer, unassigned) [Example 91], the EC50 in test [1] was below 30 µM. For the same compound, the MIC in test [2] was 32 to 64 µg/mL (≈ 53.9 to 108 µM); in test [3], 2 to 4 µg/mL (≈ 3.37 to 6.74 µM); in test [4], above 128 µg/mL; in test [5] it was 0.5 to 1 µg/mL (≈ 0.843 to 1.69 µM).
The like results for `CCN1CCN(C(=O)N[C@H](C(=O)N[C@H]2Cc3cccc(C(=O)O)c3OB2O)c2cc(Cl)c(O)cc2Cl)C(=O)C1=O` (single isomer, unassigned) [Example 92] were, in that order, above 500 µM, above 128 µg/mL, above 128 µg/mL, above 128 µg/mL and 8 to 16 µg/mL (≈ 13.5 to 27 µM).
For the compound `O=C(O)c1ccc(C(NC(=O)N2CCN(CCNC(=O)c3ccc(O)c(O)c3Cl)C(=O)C2=O)C(=O)N[C@H]2Cc3ccc(F)c(C(=O)O)c3OB2O)cc1F` (stereo partly drawn) [Example 11, (3R)-3-(2-(4-carboxy-3-fluorophenyl)-2-(4-(2-(2-chloro-3,4-dihydroxybenzamido)ethyl)-2,3-dioxopiperazine-1-carboxamido)acetamido)-7-fluoro-2-hydroxy-3,4-dihydro-2H-benzo[e][1,2]oxaborinine-8-carboxylic acid], in test [1], the EC50 is below 30 µM. Further, the figures for the MIC in test [2], in test [3] and in test [4] were 32 to 64 µg/mL (≈ 41.4 to 82.7 µM), 8 to 16 µg/mL (≈ 10.3 to 20.7 µM) and 32 to 64 µg/mL (≈ 41.4 to 82.7 µM), respectively.
On to `CCN1CCN(C(=O)NC(C(=O)N[C@H]2Cc3ccc(F)c(C(=O)O)c3OB2O)c2ccc(C(=O)O)cc2)C(=O)C1=O` (stereo partly drawn) [Example 15, (3R)-3-(2-(4-carboxyphenyl)-2-(4-ethyl-2,3-dioxopiperazine-1-carboxamido)acetamido)-7-fluoro-2-hydroxy-3,4-dihydro-2H-benzo[e][1,2]oxaborinine-8-carboxylic acid], for which, in test [1], the EC50 was below 30 µM. Besides, the MIC in test [2] is above 128 µg/mL; in test [3] it was 8 to 16 µg/mL (≈ 14 to 28.1 µM); in test [4], above 128 µg/mL; in test [5], below 0.25 µg/mL.
On to `CCN1CCN(C(=O)NC(C(=O)N[C@H]2Cc3cccc(C(=O)O)c3OB2O)c2ccc(O)c(NC(C)=O)c2)C(=O)C1=O` (stereo partly drawn) [Example 17, (3R)-3-(2-(3-acetamido-4-hydroxyphenyl)-2-(4-ethyl-2,3-dioxopiperazine-1-carboxamido)acetamido)-2-hydroxy-3,4-dihydro-2H-benzo[e][1,2]oxaborinine-8-carboxylic acid], for which the EC50 in test [1] fell in the range of 30 to 500 µM. In addition, the MIC is above 128 µg/mL in test [2], 2 to 4 µg/mL (≈ 3.44 to 6.88 µM) in test [3], above 128 µg/mL in test [4] and 2 to 4 µg/mL (≈ 3.44 to 6.88 µM) in test [5].
`CCN1CCN(C(=O)NC(C(=O)N[C@H]2Cc3ccc(F)c(C(=O)O)c3OB2O)c2nc(N)sc2F)C(=O)C1=O` (stereo partly drawn) [Example 18, (3R)-3-(2-(2-amino-5-fluorothiazol-4-yl)-2-(4-ethyl-2,3-dioxopiperazine-1-carboxamido)acetamido)-7-fluoro-2-hydroxy-3,4-dihydro-2H-benzo[e][1,2]oxaborinine-8-carboxylic acid] yielded an EC50 in test [1] below 30 µM. Moreover, the MIC in test [2] fell in the range of 8 to 16 µg/mL (≈ 14.1 to 28.3 µM); in test [3], 2 to 4 µg/mL (≈ 3.53 to 7.06 µM); in test [4] it was 32 to 64 µg/mL (≈ 56.5 to 113 µM); in test [5], 0.5 to 1 µg/mL (≈ 0.883 to 1.77 µM).
`O=C(NC(C(=O)N[C@H]1Cc2ccc(F)c(C(=O)O)c2OB1O)c1ncc(O)cc1F)c1ccnc(F)c1` (stereo partly drawn) [Example 53, (3R)-7-fluoro-3-(2-(3-fluoro-5-hydroxypyridin-2-yl)-2-(2-fluoroisonicotinamido)acetamido)-2-hydroxy-3,4-dihydro-2H-benzo[e][1,2]oxaborinine-8-carboxylic acid]: the EC50 in test [1] was in the range of 30 to 500 µM. The MIC in test [2], in test [3] and in test [4] was above 128 µg/mL in each case.
